The results in this text go back to patent US9376420B2 (YUHAN CORPORATION, priority 2012, dated 2016).

For orientation: EC50 means the concentration at which the effect is half-maximal.

The target of this test is T1, human LXRβ (Homo sapiens, UniProt P55055).
T1 construct: expressed in transfected cells; host or cells: HEK293 cells (ATCC CRL-1573), transient transfection with pFA-hLXRβ/GAL4 and pUAS
T1 sequence (P55055 222-460 limits assumed): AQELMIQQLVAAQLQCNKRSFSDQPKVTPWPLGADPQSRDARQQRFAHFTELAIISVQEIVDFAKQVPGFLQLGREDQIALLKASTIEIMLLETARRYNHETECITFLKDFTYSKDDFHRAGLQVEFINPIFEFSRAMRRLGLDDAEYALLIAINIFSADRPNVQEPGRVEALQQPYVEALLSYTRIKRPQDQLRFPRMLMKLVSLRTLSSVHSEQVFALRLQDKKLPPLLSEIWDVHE
Briefly: Assay for Transcriptional Activity of LXRβ (GAL4-hLXRβ LBD luciferase reporter, transient transfection). Type of test: cell-based. As to conditions: HEK293 cells transfected with pFA-hLXRβ/GAL4 and pUAS, 24 hours; for Emax: fold value in comparison with the control (DMSO-treated group); for EC50: increase of transcriptional activity of LXRβ, average of three independent tests. The procedure, abridged: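 HEK293 cells transiently co-transfected with GAL4-hLXRβ LBD and 5×GAL4-UAS luciferase reporter, treated 24 h at 37 °C with compounds over 9 points (0.01–50 μM, half-log). Luminescence read after lysis; EC50 from four-parameter fit, mean of three independent tests, with a known LXR agonist as positive control.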

Compound `CS(=O)(=O)N1CC=C(c2ccc(F)c(C3CC(C(F)(F)C(F)(F)F)=NN3c3ccc(F)cc3F)c2)CC1` (stereo not shown) [Example 149, 1-(2,4-difluoro-phenyl)-5-[2-fluoro-5-(1-methanesulfonyl-1,2,3,6-tetrahydropyridin-4-yl)-phenyl]-3-pentafluoroethyl-4,5-dihydro-1H-pyrazole] returned an Emax of 124 fold and a concentration giving a half-maximal response (EC50) of 303 nM.
The corresponding values for `O=S(=O)(C1CC1)N1CC=C(c2cncc(C3CC(C(F)(F)C(F)(F)F)=NN3c3ccc(F)cc3F)c2)CC1` (stereo not shown) [Example 168, 1-(2,4-difluoro-phenyl)-5-[3-(1-cyclopropanesulfonyl-1,2,3,6-tetrahydropyridin-4-yl)-pyridin-5-yl]-3-pentafluoroethyl-4,5-dihydro-1H-pyrazole] are 30 fold and 6120 nM.
`CS(=O)(=O)c1cccc(-c2ccc(C3CC(C(O)(C(F)(F)F)C(F)(F)F)=NN3c3ccccc3Cl)c(F)c2)c1` (stereo not shown) [Example 347, 1-(2-chloro-phenyl)-5-(3-fluoro-3′-methanesulfonyl-biphenyl-4-yl)-3-[di-(trifluoromethyl)-hydroxy-methyl]-4,5-dihydro-1H-pyrazole] came in with an Emax of 62 fold and an EC50 of 42 nM.
`Cc1ccccc1-c1ccc(C2CC(C(O)(C(F)(F)F)C(F)(F)F)=NN2c2ccccc2Cl)c(F)c1` (stereo not shown) [Example 340, 1-(2-chloro-phenyl)-5-(3-fluoro-2′-methyl-biphenyl-4-yl)-3-[di-(trifluoromethyl)-hydroxy-methyl]-4,5-dihydro-1H-pyrazole] returned an Emax of 101 fold and an EC50 of 780 nM.
The corresponding values for `O=Cc1ccc(-c2cccc(C3CC(C(F)(F)C(F)(F)F)=NN3c3ccc(F)cc3F)c2)nc1` (stereo not shown) [Example 79, 1-(2,4-difluoro-phenyl)-5-[3-(5-formyl-pyridin-2-yl)-phenyl]-3-pentafluoroethyl-4,5-dihydro-1H-pyrazole] are 46 fold and 747 nM.
The corresponding values for `OC(C1=NN(c2ccccc2Cl)C(c2ccc(-c3cc4ccccc4o3)cc2)C1)(C(F)(F)F)C(F)(F)F` (stereo not shown) [Example 262, 5-(4-benzofuran-2-yl-phenyl)-1-(2-chloro-phenyl)-3-[di-(trifluoromethyl)-hydroxy-methyl]-4,5-dihydro-1H-pyrazole] are 92 fold and 6860 nM.
The corresponding values for `CC(C)CS(=O)(=O)N1CC=C(c2ccc(C3CC(C(O)(C(F)(F)F)C(F)(F)F)=NN3c3ccccc3Cl)cc2)CC1` (stereo not shown) [Example 302, 1-(2-chloro-phenyl)-5-{4-[1-(2-methyl-propane-1-sulfonyl)-1,2,3,6-tetrahydropyridin-4-yl]-phenyl}-3-[di-(trifluoromethyl)-hydroxy-methyl]-4,5-dihydro-1H-pyrazole] are 45 fold and 849 nM.
In the case of `Cc1cc(F)ncc1-c1ccc(C2CC(C(O)(C(F)(F)F)C(F)(F)F)=NN2c2ccc(F)cc2F)cc1` (stereo not shown) [Example 384, 1-(2,4-difluoro-phenyl)-5-[4-(6-fluoro-4-methyl-pyridin-3-yl)-phenyl]-3-[di-(trifluoromethyl)-hydroxy-methyl]-4,5-dihydro-1H-pyrazole], the Emax was 46 fold and the EC50 was 94 nM.
The corresponding values for `CS(=O)(=O)N1CCN(c2ccc(F)c(C3CC(C(F)(F)C(F)(F)F)=NN3c3ccc(F)cc3F)c2)CC1` (stereo not shown) [Example 145, 1-(2,4-difluoro)-5-[2-fluoro-5-(4-methanesulfonyl-piperazin-1-yl)-phenyl]-3-pentafluoroethyl-4,5-dihydro-1H-pyrazole] are 107 fold and 885 nM.
For `Cc1ccncc1-c1ccc(C2CC(C(O)(C(F)(F)F)C(F)(F)F)=NN2c2ccccc2Cl)cc1` (stereo not shown) [Example 271, 1-(2-chloro-phenyl)-5-[4-(4-methyl-pyridin-3-yl)-phenyl]-3-[di-(trifluoromethyl)-hydroxy-methyl]-4,5-dihydro-1H-pyrazole], in that order: 45 fold and 547 nM.
Compound `CS(=O)(=O)N1CC=C(c2ccc(C3CC(C(O)(C(F)(F)F)C(F)(F)F)=NN3c3ccccc3Cl)cn2)CC1` (stereo not shown) [Example 358, 1-(2-chloro-phenyl)-5-[6-(1-methanesulfonyl-1,2,3,6-tetrahydropyridin-4-yl)-pyridin-3-yl]-3-[di-(trifluoromethyl)-hydroxy-methyl]-4,5-dihydro-1H-pyrazole] yielded an Emax of 90 fold and an EC50 of 719 nM.
The corresponding values for `O=S1(=O)CCN(c2ccc(C3CC(C(O)(C(F)(F)F)C(F)(F)F)=NN3c3ccccc3Cl)cc2)CC1` (stereo not shown) [Example 329, 1-(2-chloro-phenyl)-5-[4-(1,1-dioxo-thiomorpholin-4-yl)-phenyl]-3-[di-(trifluoromethyl)-hydroxy-methyl]-4,5-dihydro-1H-pyrazole] are 39 fold and 2030 nM.
For the compound `CS(=O)(=O)N1CCN(c2ccc(C3CC(C(O)(C(F)(F)F)C(F)(F)F)=NN3c3ccccc3Cl)cc2)CC1` (stereo not shown) [Example 312, 1-(2-chloro-phenyl)-5-[4-(4-methanesulfonyl-piperazin-1-yl)-phenyl]-3-[di-(trifluoromethyl)-hydroxy-methyl]-4,5-dihydro-1H-pyrazole], the Emax was determined as 46 fold and the EC50 was 2540 nM.
The corresponding values for `CS(=O)(=O)c1ccc(-c2cccc(C3CC(C(F)(F)C(F)(F)F)=NN3Cc3ccccc3Cl)c2)cc1` (stereo not shown) [Example 54, 1-(2-chloro-benzyl)-5-(4′-methanesulfonyl-biphenyl-3-yl)-3-pentafluoroethyl-4,5-dihydro-1H-pyrazole] are 17 fold and 6430 nM.
For `CN(C)c1ccc(-c2ccc(C3CC(C(O)(C(F)(F)F)C(F)(F)F)=NN3c3ccccc3Cl)cc2)cc1` (stereo not shown) [Example 254, 1-(2-chloro-phenyl)-5-(4′-dimethylamino-biphenyl-4-yl)-3-[di-(trifluoromethyl)-hydroxy-methyl]-4,5-dihydro-1H-pyrazole], in that order: 50 fold and 7060 nM.
The corresponding values for `COc1ncc(-c2ccc(C3CC(C(O)(C(F)(F)F)C(F)(F)F)=NN3c3ccc(F)cc3F)cc2)cc1C=O` (stereo not shown) [Example 379, 1-(2,4-difluoro-phenyl)-5-[4-(5-formyl-6-methoxy-pyridin-3-yl)-phenyl)-3-[di-(trifluoromethyl)-hydroxy-methyl]-4,5-dihydro-1H-pyrazole] are 35 fold and 745 nM.
The compound `O=S(=O)(C1CC1)N1CC=C(c2ccc(C3CC(C(O)(C(F)(F)F)C(F)(F)F)=NN3c3ccccc3Cl)cc2)CC1` (stereo not shown) [Example 304, 1-(2-chloro-phenyl)-5-[4-(1-cyclopropanesulfonyl-1,2,3,6-tetrahydropyridin-4-yl)-phenyl]-3-[di-(trifluoromethyl)-hydroxy-methyl]-4,5-dihydro-1H-pyrazole] registered an Emax of 104 fold and an EC50 of 521 nM.
For `O=S(=O)(C1CC1)N1CC=C(c2ccc(C3CC(C(O)(C(F)(F)F)C(F)(F)F)=NN3c3ccccc3Cl)cn2)CC1` (stereo not shown) [Example 359, 1-(2-chloro-phenyl)-5-[6-(1-cyclopropanesulfonyl-1,2,3,6-tetrahydropyridin-4-yl)-pyridin-3-yl]-3-[di-(trifluoromethyl)-hydroxy-methyl]-4,5-dihydro-1H-pyrazole], in that order: 92 fold and 630 nM.
Take `OC(C1=NN(c2ccccc2Cl)C(c2ccc(-c3ccc(F)cc3)cc2F)C1)(C(F)(F)F)C(F)(F)F` (stereo not shown) [Example 344, 1-(2-chloro-phenyl)-5-(3,4′-difluoro-biphenyl-4-yl)-3-[di-(trifluoromethyl)-hydroxy-methyl]-4,5-dihydro-1H-pyrazole]: the Emax came out at 53 fold and the EC50 was 989 nM.
For `CS(=O)(=O)c1cccc(-c2cccc(N3N=C(C(F)(F)C(F)(F)F)CC3c3ccc(F)cc3F)c2)c1` (stereo not shown) [Example 206, 5-(2,4-difluoro-phenyl)-1-[3′-(methylsulfonyl)-biphenyl-3-yl]-3-pentafluoroethyl-4,5-dihydro-1H-pyrazole], in that order: 87 fold and 1400 nM.
The corresponding values for `CCS(=O)(=O)N1CCN(c2ccc(C3CC(C(O)(C(F)(F)F)C(F)(F)F)=NN3c3ccccc3Cl)cc2)CC1` (stereo not shown) [Example 313, 1-(2-chloro-phenyl)-5-[4-(4-ethanesulfonyl-piperazin-1-yl)-phenyl]-3-[di-(trifluoromethyl)-hydroxy-methyl]-4,5-dihydro-1H-pyrazole] are 56 fold and 1120 nM.
The corresponding values for `CS(=O)(=O)c1cccc(-c2ccc(C3CC(C(O)(C(F)(F)F)C(F)(F)F)=NN3c3ccccc3Cl)cc2)n1` (stereo not shown) [Example 286, 1-(2-chloro-phenyl)-5-{4-[6-(methylsulfonyl)-pyridin-2-yl]-phenyl}-3-[di-(trifluoromethyl)-hydroxy-methyl]-4,5-dihydro-1H-pyrazole] are 36 fold and 632 nM.
As to `CS(=O)(=O)c1ccc(-c2ccc(C3CC(C(O)(C(F)(F)F)C(F)(F)F)=NN3c3ccccc3Cl)cc2F)cc1` (stereo not shown) [Example 365, 1-(2-chloro-phenyl)-5-(2-fluoro-4′-methylsulfonyl-biphenyl-4-yl)-3-[di-(trifluoromethyl)-hydroxy-methyl]-4,5-dihydro-1H-pyrazole], the Emax is listed as 68 fold and the concentration for a half-maximal effect (EC50) is 283 nM.
